Data published in patent publication US20260219274A1, “POLYOL SWEETNERS AND CARDIOVASCULAR AND THROMBOTIC EVENT RISK” (THE CLEVELAND CLINIC FOUNDATION, priority 2023, published 2026).

Experiments:
human whole blood = experiment: Whole blood in vitro thrombosis assay (collagen-coated microfluidic chip); assay type: cell-based
Protocol: Shear flow experiments of whole blood were performed with a Cellix Microfluidics System (Cellix, Dublin, Ireland) as previously described and outlined in additional methods.^41-43 The extent of platelet activation and adhesion to the collagen matrix was quantified using computer assisted tomographic analyses, as previously described.^40
Shear flow experiments of whole blood were performed with a Cellix Microfluidics System (Cellix, Dublin, Ireland) as previously described.^6-8 Before use, the micro channels of a Vena8 Fluoro+ biochip were coated with type 1 collagen (15 μL; 50 μg/mL) and each channel of the biochip then washed with PBS using the Mirus Nanopump. Images were taken with an HC Plan Apo 20X/0.7NA lens on a Leica DMI6000 inverted microscope equipped with an environmental chamber and a Hamamatsu ImagEM cooled CCD camera. […] Images of platelets adhering to the collagen matrix were recorded every 5 s. […] The extent of platelet activation and adhesion to the collagen matrix was quantified using computer assisted tomographic analyses as previously described.^5 Briefly, images of CD42b stained platelet thrombi were quantified using Image Pro plus software (Media Cybernetics, Rockville, Maryland, USA). The intensity threshold was chosen to select for specific staining and the integrated optical density (IOD, Area×Intensity) quantified. […]

[1] = tested on: stable subjects undergoing elective diagnostic cardiac evaluations (Discovery Cohort); details: in vivo
Source text: Our first study employed a Discovery Cohort, where we used untargeted metabolomics (semi-quantitative analyses) to analyze plasma samples from 1,157 stable subjects to identify circulating analytes whose levels were associated with future development of adverse cardiovascular events over an ensuing 3 year period. The Discovery Cohort included sequential stable patients (ages 18 years or above) undergoing elective diagnostic coronary angiography for risk evaluation at a quaternary referral center between 2001 and 2007 (GeneBank at the Cleveland Clinic; clinicaltrials.gov identifier: NCT00590200) with clinical and longitudinal outcomes.
In both, the Discovery and Validation Cohorts, Major Adverse Cardiovascular Events (MACE) were defined as death, nonfatal myocardial infarction, or nonfatal cerebrovascular accident (stroke) during follow-up. Adjudicated long term survival data were collected through medical records review and Social Security Death Index query. Cardiovascular disease (CVD) was indicated as presence of peripheral artery disease or coronary artery disease, indicated as any clinical history of myocardial infarction, coronary revascularization (including percutaneous coronary intervention, coronary artery bypass surgery), or angiographic evidence of significant stenosis (≥50%) in 1 or more major coronary arteries. Estimated glomerular filtration rate (eGFR) in both cohorts was calculated based on the recent Chronic Kidney Disease Epidemiology Collaboration 2021 CKD-EPI Creatinine equation.^37 Platelet-related hematology analyses were performed with an Advia 120 hematology analyzer (Siemens, New York, NY).^38 Use of anti-platelet agents (=1556) was defined as either aspirin or a P2Y12 agent or both. All observational studies in this example are reported in compliance with the STrengthening the Reporting of Observational studies in Epidemiology (STROBE)-Statement.^39 Information on gender of study participants of the Discovery and Validation Cohorts is reported in Table 1-3.
For untargeted mass spectrometry analyses, subject plasma samples were derivatized and run on GC-MS analyses as previously described.^19 Raw data files were processed using the metabolomics BinBase database.^45
Continuous variables are summarized as median (interquartile range [IQR]), and categorical variables are presented as %. Difference between groups (e.g. tertiles or quartiles) were examined using Kruskal Wallis test for continuous variables and chisq (χ^2) test for categorical variables. Kaplan-Meier analysis with Cox proportional-hazards regression was used for time-to-event analysis to determine hazard ratios (HR) and 95% confidence intervals (CI) for incident MACE. Adjustments included traditional cardiovascular risk factors (age, sex, diabetes mellitus, systolic blood pressure, low-density lipoprotein cholesterol levels, high-density lipoprotein cholesterol levels, triglyceride levels, smoking status) and high-sensitivity C-reactive protein (hsCRP). We confirmed that the proportionality hazards assumptions were met using the Schoenfeld residuals against the transformed time. Mann-Whitney U-test or Wilcoxon matched-pairs signed rank test were applied to continuous variables to examine differences between 2 groups. Kruskal-Wallis test with Dunn's post hoc test was used for pairwise multiple comparisons of ranked data. Two-way ANOVA with Šidák's multiple comparison post hoc test was used for multiple-group comparisons of aggregometry responses using different concentrations of agonists. For analysis of collagen-dependent platelet adhesion in whole blood, a two-way repeated measures ANOVA with Sidák's multiple comparison post hoc test was used. All reported measurements represent distinct samples. Data analyses were performed with R software (version 4.0.2) and GraphPad Prism software (version 9.1.2). A two-sided P<0.05 was considered statistically significant. […]

Structure (SMILES)	rate of collagen-dependent platelet adhesion and spreading (human whole blood; xylitol, physiological shear flow)	adjusted HR [95% CI] for incident (3 year) MACE [1]	hazard ratio (HR) [95% CI] for incident (3 year) MACE [1]	rate of collagen-dependent platelet adhesion and thrombus formation (human whole blood; erythritol (45 μM), physiological shear conditions)	HR for MACE [1]	HR with 95% CI [1]	adjusted HR for incident MACE [1]
OC[C@@H](O)[C@H](O)[C@@H](O)CO [xylitol]	substantially accelerated	1.64 [1.05-2.56]	1.63 [1.04-2.53]	–	–	–	–
OC[C@@H](O)[C@@H](O)CO [erythritol]	–	–	–	significant enhancement	3.22 [95% CI 1.91-5.41]	1.31 (1.17-1.46)	2.95 [1.70-5.12]
